Here are results for 2 compounds from patent US10851102B2, “Imidazole and triazole containing bicyclic compounds as JAK inhibitors” (THERAVANCE BIOPHARMA R&D IP, LLC, priority 2019, dated 2020).

For orientation: Kp means the ratio of the level in a tissue or fluid to that in plasma or blood.

The target in data set [1] is Tyk2 (Homo sapiens (Human), UniProt P29597). The data set is described as follows: Biochemical JAK and Tyk2 kinase assays (LanthaScreen): Tyk2. As to conditions: 1 h pre-incubation, ATP at Km; pIC50 converted to pKi by Cheng-Prusoff. A digest of the protocol: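 Compound, GST-tagged JAK enzyme and GFP-labelled STAT1 peptide were first incubated together for 1 h at ambient temperature. ATP then started a 1 h reaction, which was stopped with EDTA and Tb-labelled anti-pSTAT1 (pTyr701) antibody. After 1 h, the 520/495 nm emission ratio gave percent inhibition; Ki derived by Cheng-Prusoff.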
Background: TR-FRET usually uses a lanthanide donor and a delayed reading to cut background.

Data set [2] relates to Caco-2 cell monolayers. Description: Caco-2 permeation assay. The format is in vitro ADME, human. Particulars: 5 μM, A to B, + Verapamil 25 μM, 120 minutes. An excerpt: Assay 5: Caco-2 Permeation Assay
On the technique in general: Caco-2 monolayers are a common model of the intestinal barrier.

The nature of data set [3]: Colon and plasma mouse pharmacokinetics. Particulars: mouse; ratio of colon AUC to plasma AUC; male Balb/c mice, 10 mg/kg PO. It counts as in vivo. On the procedure:
Assay 6: Colon and Plasma Mouse Pharmacokinetics
6 male Balb/c mice were administered 10 mg/kg of compound in 1% HPMC+0.1% Tween-80 by PO administration. At 0.5, 2 and 6 hours after dose administration, animals were anesthetized, and terminal blood samples were collected by cardiac puncture, followed by collection of colon contents and colon tissue.
Blood samples were collected into K2EDTA and stored on wet ice until processed to plasma by centrifugation (12,000 rpm at 4° C.). Plasma samples were transferred to cluster tubes and placed on dry ice prior to freezer storage. The colon contents from each animal were collected at each terminal blood collection time point. The colon tissues were flushed with saline and patted dry. The colon and colon content tissues were homogenized using sterile water containing 0.1% formic acid 9:1 (water:tissue, v/w). The homogenized tissues and colon contents were transferred to cluster tubes and placed on dry ice prior to freezer storage. All samples were analyzed using LC/MS/MS against analytical standards.
The composite pharmacokinetic parameters of the compounds were determined by non-compartmental analysis using Phoenix WinNonlin Version 6 (Certara, St. Louis, Mo.) and using mean values from 2 animals/time point. For plasma concentrations below the quantification limit (BQL), the lowest concentration measurable or the BLOQ (below limit of quantification) was used.
A colon to plasma ratio was determined as the ratio of the colon AUC to the plasma AUC.

Chain of Tyk2 (P29597 whole entry): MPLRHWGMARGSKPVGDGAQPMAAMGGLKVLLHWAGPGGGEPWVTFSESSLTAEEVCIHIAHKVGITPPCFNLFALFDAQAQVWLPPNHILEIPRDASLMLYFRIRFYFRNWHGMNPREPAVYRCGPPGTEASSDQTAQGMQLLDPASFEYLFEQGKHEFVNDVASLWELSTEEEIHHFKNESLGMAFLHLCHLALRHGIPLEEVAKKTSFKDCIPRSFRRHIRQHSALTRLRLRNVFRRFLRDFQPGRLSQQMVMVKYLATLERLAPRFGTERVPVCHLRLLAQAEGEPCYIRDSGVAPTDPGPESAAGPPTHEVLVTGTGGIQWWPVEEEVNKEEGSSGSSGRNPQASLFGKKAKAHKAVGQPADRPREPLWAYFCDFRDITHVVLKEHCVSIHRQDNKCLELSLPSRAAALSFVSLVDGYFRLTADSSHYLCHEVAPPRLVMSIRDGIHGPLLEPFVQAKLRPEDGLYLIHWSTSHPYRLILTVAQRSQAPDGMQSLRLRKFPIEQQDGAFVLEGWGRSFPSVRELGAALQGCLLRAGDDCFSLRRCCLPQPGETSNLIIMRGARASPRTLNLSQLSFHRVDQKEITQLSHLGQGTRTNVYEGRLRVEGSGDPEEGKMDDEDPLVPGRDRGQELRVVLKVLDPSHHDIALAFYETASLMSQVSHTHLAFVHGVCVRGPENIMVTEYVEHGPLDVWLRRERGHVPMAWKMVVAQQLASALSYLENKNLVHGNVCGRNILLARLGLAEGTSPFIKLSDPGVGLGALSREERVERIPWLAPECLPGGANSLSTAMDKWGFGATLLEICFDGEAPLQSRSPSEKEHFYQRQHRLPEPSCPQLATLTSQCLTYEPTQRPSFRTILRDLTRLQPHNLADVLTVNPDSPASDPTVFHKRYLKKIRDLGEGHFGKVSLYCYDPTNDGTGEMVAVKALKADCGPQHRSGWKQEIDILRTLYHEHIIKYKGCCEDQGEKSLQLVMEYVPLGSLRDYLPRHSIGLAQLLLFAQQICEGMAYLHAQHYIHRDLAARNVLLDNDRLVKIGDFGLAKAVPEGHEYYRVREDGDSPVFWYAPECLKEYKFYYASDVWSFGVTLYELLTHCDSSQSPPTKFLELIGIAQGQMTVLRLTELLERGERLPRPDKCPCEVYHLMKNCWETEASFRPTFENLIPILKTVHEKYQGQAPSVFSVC

With `C=CC(=O)N1CC(COc2cc(-c3ccc(O)c(Cl)c3)cn3cncc23)C1` [Example 12, 1-(3-(((6-(3-chloro-4-hydroxyphenyl)imidazo[1,5-a]pyridin-8-yl)oxy)methyl)azetidin-1-yl)prop-2-en-1-one], the “Tyk 2 (pKi)” value in data set [1] is “E (E represents a pKi value of 7 or below (Ki of 100 nM or above))”. In addition, the “Caco Kp 10^−6 cm/sec” value in data set [2] is on record as “A (A represents a value below 5×10^−6 cm/sec)”. In data set [3], the Kp is greater than 200.

For the compound `C=CC(=O)N1CC(COc2cc(-c3cc(F)c(O)cc3CC)cn3cncc23)C1` [Example 13, 1-(3-(((6-(2-ethyl-5-fluoro-4-hydroxyphenyl)imidazo[1,5-a]pyridin-8-yl)oxy)methyl)azetidin-1-yl)prop-2-en-1-one], the “Tyk 2 (pKi)” value in data set [1] is given as “E (E represents a pKi value of 7 or below (Ki of 100 nM or above))”. Besides, the “Caco Kp 10^−6 cm/sec” value in data set [2] is “A (A represents a value below 5×10^−6 cm/sec)”. The Kp in data set [3] was greater than 200.
